Experimental data from EP1705169A2, “Triphenylalkene derivatives and their use as selective estrogen receptor modulators” (priority 1999, dated 2001).
Where two headings read alike, the source gives them in different places.

Legend:
immature female rats = test: 3 day uterotropic assay in immature female rats (given alone and with estradiol); format: in vivo; settings: for Estrogen antagonism (% inhibition of estradiol) Given with estradiol / Uterotropic effect (% of estradiol) Given without estradiol: 3 days, immature female rats
Protocol: The values are given at two dose levels, low i.e. 3―5 mg/kg and high i.e. 10―50 mg/kg. Estrogenic activity can be estimated also after a 4 weeks' treatment of ovariectomized rats based on the uterine size.

MCF-7 cells = test: cells; settings: for inhibition at 1 µM / Emax / cytotoxicity at 10 µM: Homo sapiens, MCF7, 96 h; for inhibition at 1 µM: read-out: Antagonism at 1 µM (% of full antagonism); for Emax: read-out: Maximal Agonism (% of E2); for Kill of MCF-7 cells (in words): highest investigated concentration (10 µM); for Hormonal activity (in words): summary statement referring to Table 2; for Estrogenic and antiestrogenic action (in words): summary statement referring to Tables 2, 3 and 4
Protocol: For experiments involving hormone or anti-hormone treatment, the cells in exponential growth phase were precultivated in the absence of estradiol for one day. […] After the incubation period the medium was removed. The exposure to study drugs was started immediately by adding fresh medium with 5 % stripped serum. Half of the cells were grown with estradiol, half without estradiol. Study compounds (dissolved in ethanol in 0.01 M concentration and diluted with the growth medium as appropriate) were added. The final concentrations of the compounds were 1,10, and 100 nM, and 1 and 10 µM. The cells were incubated for four days.
This method allows evaluation of estrogenicity based on the ability of the compounds to stimulate the growth of the estrogen-dependent cells in the absence of estradiol. Estrogenicity was estimated by comparing the maximal growth stimulus (at any concentration) of study compound as per cent from growth stimulus by estradiol (100 % stimulus). […] At high concentrations molecules may also show toxicity. Toxicity was estimated as the fraction of dead cells (i.e. 100 % means that all cells have died during the exposure).

[1] = read-out: Maximal Cell Kill (% fraction of dead cells), With estradiol (E2), toxicity at 10 µmol/l, 100 = all cells dead
[2] = read-out: Maximal Cell Kill (% fraction of dead cells), Without estradiol (E2), toxicity at 10 µmol/l, 100 = all cells dead

| Structure (SMILES) | Estrogen antagonism (% inhibition of estradiol) Given with estradiol (immature female rats; dose 3–5 mg/kg) | Uterotropic effect (% of estradiol) Given without estradiol (immature female rats; dose 3–5 mg/kg) | Estrogen antagonism (% inhibition of estradiol) Given with estradiol (immature female rats; dose 10–50 mg/kg) | Uterotropic effect (% of estradiol) Given without estradiol (immature female rats; dose 10–50 mg/kg) | inhibition at 1 µM (MCF-7 cells) | Emax (MCF-7 cells) | cytotoxicity at 10 µM (MCF-7 cells; [1]) | cytotoxicity at 10 µM (MCF-7 cells; [2]) | Kill of MCF-7 cells (in words) (MCF-7 cells; Table 2) | Hormonal activity (in words) (MCF-7 cells) | Estrogenic and antiestrogenic action (in words) (MCF-7 cells) | Estrogenic action in vivo (in words) (immature female rats; Table 3) | Estrogenic action in vitro (in words) (MCF-7 cells; Table 2) | cytotoxicity at 10 µM (MCF-7 cells; read-out: Maximal Cell Kill (% fraction of dead cells)) |
| --- | --- | --- | --- | --- | --- | --- | --- | --- | --- | --- | --- | --- | --- | --- |
| CN(C)CCOc1ccc(/C(=C(/CCCl)c2ccccc2)c2ccccc2)cc1 [Toremifene, 4-chloro-1,2-diphenyl-1-[4-[2-(N,N-dimethylamino)ethoxy]phenyl]-1-butene, Z-isomer, reference compound] | 45 % inhibition of estradiol | 26 % of estradiol | 58 % inhibition of estradiol | 44 % of estradiol | 44% | 37% | 100% | 100% | – | – | – | – | – | – |
| OCCCOc1ccc(/C(=C(/CCCl)c2ccccc2)c2ccccc2)cc1 [No. 35, (Z)-3-[4-(4-Chloro-1,2-diphenylbut-1-enyl)phenoxy]propan-1-ol] | 35 % inhibition of estradiol | 43 % of estradiol | 32 % inhibition of estradiol | 66 % of estradiol | 14% | – | 50% | 50% | – | – | – | – | – | – |
| CN(C)CCOc1ccc(/C(=C(\CCCl)c2ccccc2)c2ccc(F)cc2)cc1 [No. 2, (Z)-(2-{4-[4-Chloro-1-(4-fluorophenyl)-2-phenylbut-1-enyl]phenoxy}ethyl)-dimethylamine] | – | – | – | – | 29% | 100% | 100% | 32% | – | – | – | – | – | – |
| OCCOc1ccc(/C(=C(\CCCl)c2ccc(O)cc2)c2ccccc2)cc1 [No. 43, (E)-4-{1-(2-Chloroethyl)-2-[4-(2-hydroxyethoxy)phenyl]-2-phenylvinyl}phenol] | – | – | – | – | 6% | 78% | 22% | 80% | – | – | – | – | – | – |
| COc1ccc(/C(=C(\CCCl)c2ccc(Cl)cc2)c2ccc(OCCN(C)C)cc2)cc1 [No. 26, (Z)-(2-{4-[4-Chloro-2-(4-chlorophenyl)-1-(4-methoxyphenyl)but-1-enyl]phenoxy}-ethyl)dimethylamine] | – | – | – | – | 11% | 0% | 98% | 97% | kill MCF-7 cells (human breast cancer cells) effectively | weak hormonal activity | – | – | – | – |
| CN(C)CCOc1ccc(/C(=C(/CCCl)c2ccc(F)cc2)c2ccccc2)cc1 [No. 25, (Z)-(2-{4-[4-Chloro-2-(4-fluorophenyl)-1-phenylbut-1-enyl]phenoxy}ethyl)-dimethylamine] | – | – | – | – | 6% | 17% | 27% | 42% | – | – | weak estrogenic and no antiestrogenic action | – | – | – |
| OCCOc1ccc(/C(=C(/CCCl)c2ccccc2)c2ccc(F)cc2)cc1 [No. 8, (E)-2-{4-[4-Chloro-2-phenyl-1-(4-fluorophenyl)but-1-enyl]phenoxy} ethanol] | – | – | – | – | 92% | 31% | 52% | 2% | – | – | – | – | – | – |
| OCCOc1ccc(/C(=C(/CCCl)c2ccc(Cl)cc2)c2ccc(Cl)cc2)cc1 [No. 9, (E)-2-{4-[4-Chloro-1,2-bis(4-chlorophenyl)but-1-enyl]phenoxy}ethanol] | – | – | – | – | 9% | 14% | 62% | 45% | – | – | – | – | – | – |
| OCCOc1ccc(/C(=C(/CCCl)c2ccccc2)c2ccc(Cl)cc2)cc1 [No. 17, (E)-2-{4-[4-Chloro-2-phenyl-1-(4-chlorophenyl)but-1-enyl]phenoxy} ethanol] | – | – | – | – | 17% | 0% | 38% | 44% | – | – | – | – | – | – |
| CN(C)CCOc1ccc(/C(=C(/CCCl)c2ccc(Cl)cc2)c2ccc(Cl)cc2)cc1 [No. 4, (E)-(2-{4-[4-Chloro-1,2-bis(4-chlorophenyl)but-1-enyl]phenoxy}ethyl)-dimethylamine] | – | – | – | – | 10% | 10% | 100% | 90% | – | – | – | – | – | – |
| CN(C)CCOc1ccc(/C(=C(/CCCl)c2ccccc2)c2ccc(F)cc2)cc1 [No. 1, (E)-(2-{4-[4-Chloro-1-(4-fluorophenyl)-2-phenylbut-1-enyl]phenoxy}ethyl)-dimethylamine] | 26 % inhibition of estradiol | 42 % of estradiol | 31 % inhibition of estradiol | 74 % of estradiol | 8% | 1% | 100% | 100% | kill MCF-7 cells (human breast cancer cells) effectively | weak hormonal activity | – | weak estrogen in vivo | no estrogenic action in vitro | – |
| CCCCN(C)C(=O)CCCCCCCCCC[C@@H]1Cc2cc(O)ccc2[C@H]2CC[C@]3(C)[C@@H](O)CC[C@H]3[C@H]12 [ICI 164,384, reference compound] | – | – | – | – | 100% | 9% | – | – | – | – | – | – | – | 100% |
| OCCOc1ccc(/C(=C(/CCCl)c2ccccc2)c2ccccc2)cc1 [FC-1271a, 2-[4-(4-chloro-1,2-diphenyl-but-1-enyl)phenoxy]ethanol, reference compound] | – | – | – | – | 21% | 23% | 80% | 50% | – | – | – | – | – | – |
| COc1ccc(/C(=C(\CCCl)c2ccc(Cl)cc2)c2ccc(OCCO)cc2)cc1 [No. 37, (Z)-2-{4-[4-Chloro-2-(4-chlorophenyl)-1-(4-methoxyphenyl)but-1-enyl]-phenoxy} ethanol] | – | – | – | – | 0% | 4% | 41% | 39% | – | – | – | – | – | – |
| CN(C)CCOc1ccc(/C(=C(\CCCl)c2ccc(Cl)cc2)c2ccc(Cl)cc2)cc1 [No. 5, (Z)-(2-{4-[4-Chloro-1,2-bis(4-chlorophenyl)but-1-enyl]phenoxy}ethyl)-dimethylamine] | – | – | – | – | 31% | 11% | 100% | 100% | – | – | – | – | – | – |
| OCCOc1ccc(C(=C(CCCl)c2ccccc2)c2ccc(OCCO)cc2)cc1 [No. 16, 2-(4-{4-Chloro-1-[4-(2-hydroxyethoxy)phenyl]-2-phenyl-but-1-enyl}phenoxy)-1-ethanol] | – | – | – | – | 23% | 22% | 96% | 90% | kill MCF-7 cells (human breast cancer cells) effectively | weak hormonal activity | – | – | – | – |
| CN(C)CCOc1ccc(/C(=C(\CCCl)c2ccc(Cl)cc2)c2ccccc2)cc1 [No. 24, (E)-(2-{4-[4-Chloro-2-(4-chlorophenyl)-1-phenylbut-1-enyl]phenoxy}ethyl)-dimethylamine] | – | – | – | – | 4% | 46% | 98% | 89% | – | – | – | – | – | – |
| COc1ccc(/C(=C(/CCCl)c2ccc(Cl)cc2)c2ccc(OCCN(C)C)cc2)cc1 [No. 27, (E)-(2-{4-[4-Chloro-2-(4-chlorophenyl)-1-(4-methoxyphenyl)but-1-enyl]phenoxy}-ethyl)dimethylamine] | – | – | – | – | 5% | 0% | 100% | 99% | kill MCF-7 cells (human breast cancer cells) effectively | weak hormonal activity | – | – | – | – |
| OCCOc1ccc(/C(=C(/CCCl)c2ccc(O)cc2)c2ccccc2)cc1 [No. 42, (Z)-4-{1-(2-Chloroethyl)-2-[4-(2-hydroxyethoxy)phenyl]-2-phenylvinyl}phenol] | – | – | – | – | 13% | 9% | 54% | 23% | – | – | – | – | – | – |
| CN(C)CCOc1ccc(/C(=C(/CCCl)c2ccc(Cl)cc2)c2ccccc2)cc1 [No. 23, (Z)-(2-{4-[4-Chloro-2-(4-chlorophenyl)-1-phenylbut-1-enyl]phenoxy}ethyl)-dimethylamine] | – | – | – | – | 5% | 14% | 93% | 89% | – | – | – | – | – | – |
| OCCOc1cccc(/C(=C(/CCCl)c2ccccc2)c2ccccc2)c1 [No. 18, (Z)-2-[3-(4-Chloro-1,2-diphenyl-but-1-enyl)phenoxy]ethanol] | – | – | – | – | 1% | – | 40% | 10% | – | – | weak estrogenic and no antiestrogenic action | – | – | – |
| OCCOc1ccc(/C(=C(/CCCl)c2ccccc2)c2cccc(O)c2)cc1 [No. 34, (E)-3-{4-Chloro-1-[4-(2-hydroxyethoxy)phenyl]-2-phenyl-but-1-enyl}-phenol] | – | – | – | – | 0% | 0% | 0% | 0% | – | – | – | – | – | – |
